Data published in patent publication EP3800188A1, “SUBSTITUTED PYRAZOLOPYRIMIDINES AS IRAK4 INHIBITORS” (Bayer AG, priority 2019, dated 2021).

Target: T1, human IRAK4 (Homo sapiens, UniProt Q9NWZ3)
T1 construct: GST (N); made in house; host or cells: baculovirus-infected Hi5 (BTI-TN-5B1-4) insect cells
T1 sequence (Q9NWZ3 1-460): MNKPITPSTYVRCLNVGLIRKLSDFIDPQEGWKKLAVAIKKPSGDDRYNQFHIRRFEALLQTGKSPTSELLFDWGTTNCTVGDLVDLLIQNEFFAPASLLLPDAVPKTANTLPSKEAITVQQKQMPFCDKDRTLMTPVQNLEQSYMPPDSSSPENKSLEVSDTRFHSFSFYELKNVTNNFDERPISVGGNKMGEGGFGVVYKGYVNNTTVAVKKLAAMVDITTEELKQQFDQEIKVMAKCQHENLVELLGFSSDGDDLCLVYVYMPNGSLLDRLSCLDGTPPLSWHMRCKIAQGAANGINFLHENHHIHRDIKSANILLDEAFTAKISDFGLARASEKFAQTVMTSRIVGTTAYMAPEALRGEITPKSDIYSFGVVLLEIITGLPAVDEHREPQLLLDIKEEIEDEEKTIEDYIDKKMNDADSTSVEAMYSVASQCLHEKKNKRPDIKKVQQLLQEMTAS
Assay: Human IRAK4 kinase activity inhibition assay (IRAK4 TR-FRET assay)
Type: biochemical
Details: 1 mM ATP, GST-human IRAK4, average or median values
Protocol: The IRAK4-inhibitory activity of the inventive substances was measured in the IRAK4 TR-FRET assay (TR-FRET = Time Resolved Fluorescence Resonance Energy Transfer) described hereinafter.
Recombinant fusion protein from N-terminal GST (glutathione S-transferase) and human IRAK4, expressed in baculovirus-infected insect cells (Hi5, BTI-TN-5B1-4, cell line purchased from Invitrogen, catalogue No. B855-02) and purified via affinity chromatography, was used as enzyme. The substrate used for the kinase reaction was the biotinylated peptide biotin-Ahx-[…] (C-terminus in amide form) which can be purchased, for example, from Biosyntan GmbH (Berlin-Buch). For the assay, 11 different concentrations in the range from 20 µM to 0.073 nM were prepared from a 2 mM DMSO solution of the test substance. 50 nl of the respective 100fold concentrated test compound solutions in DMSO were pipetted into a black low-volume 384-well microtitre plate or a black 1536-well microtiter plate (both Greiner Bio-One, Frickenhausen, Germany), 2 µl of a solution of IRAK4 in assay buffer [50 mM HEPES pH 7.5, 5mM MgCl2, 1.0 mM dithiothreitol, 30 µM activated sodium orthovanadate, 0.1% (w/v) of bovine gamma-globulin (BGG) 0.04% (v/v) nonidet-P40 (Sigma)] were added and the mixture was incubated for 15 min to allow prebinding of the substances to the enzyme prior to the kinase reaction. […] The concentration of the IRAK4 was adjusted to the respective activity of the enzyme and set such that the assay was carried out in the linear range. Typical concentrations were in the order of about 0.2 nM. The reaction was stopped by addition of 5 µl of a solution of TR-FRET detection reagents [0.1 µM streptavidin-XL665 (Cisbio Bioassays; France, catalogue No. 610SAXLG)] and 1.5 nM anti-phosphoserine antibody [Merck Millipore, "STK Antibody", catalogue No. 35-002] and 0.6 nM LANCE EU-W1024-labelled anti-mouse-IgG antibody (Perkin-Elmer, product No. AD0077; alternatively, it is possible to use a terbium cryptate-labelled anti-mouse-IgG antibody from Cisbio Bioassays) in aqueous EDTA solution (100 mM EDTA, 0.4 % [w/v] bovine serum albumin [BSA] in 25 mM HEPES pH 7.5). The resulting mixture was incubated at 22°C for 1 h to allow formation of a complex of the biotinylated phosphorylated substrate and the detection reagents. The amount of the phosphorylated substrate was then evaluated by measuring the resonance energy transfer from europium chelate-labelled anti-mouse-IgG antibody to streptavidin-XL665. To this end, the fluorescence emissions at 620 nm and 665 nm were measured after excitation at 350 nm in a TR-FRET measuring instrument, for example a Rubystar (BMG Labtechnologies, Offenburg, Germany) or a Viewlux (Perkin-Elmer). The ratio of the emissions at 665 nm and 622 nm was taken as a measure of the amount of phosphorylated substrate. The data were normalized (enzyme reaction without test substance = 0% inhibition; all other assay components but no enzyme = 100% inhibition).

| SMILES | IC50 [nM] |
| --- | --- |
| CC(C)(O)C1CCN(c2nc(NC3CCCS(=O)(=O)C3)nc3c2cnn3-c2cccc(C(F)(F)F)c2)CC1 (centres unmarked) [Example I-10, 2-(1-{6-[(1,1-dioxidotetrahydro-2H-thiopyran-3-yl)amino]-1-[3-(trifluoromethyl)phenyl]-1H-pyrazolo[3,4-d]pyrimidin-4-yl)piperidin-4-yl)propan-2-ol] | 131 |
| CC(C)(O)C1CCN(c2nc(N[C@H]3CCCNC3=O)nc3c2cnn3-c2cccc(C(F)(F)F)c2)CC1 [Example I-11-1, (3S)-3-({4-[4-(2-hydroxypropan-2-yl)piperidin-1-yl]-1-[3-(trifluoromethyl)phenyl]-1H-pyrazolo[3,4-d]pyrimidin-6-yl}amino)piperidin-2-one] | 139 |
| CC(C)(O)C1CCN(c2nc(N[C@@H]3CCCNC3=O)nc3c2cnn3-c2cccc(C(F)(F)F)c2)CC1 [Example I-11-2, (3R)-3-({4-[4-(2-hydroxypropan-2-yl)piperidin-1-yl]-1-[3-(trifluoromethyl)phenyl]-1H-pyrazolo[3,4-d]pyrimidin-6-yl}amino)piperidin-2-one] | 151 |
| CC(C)(O)C1CCN(c2nc(N[C@H]3CCNC3=O)nc3c2cnn3-c2cccc(C(F)(F)F)c2)CC1 [Example I-12, (3S)-3-({4-[4-(2-hydroxypropan-2-yl)piperidin-1-yl]-1-[3-(trifluoromethyl)phenyl]-1H-pyrazolo[3,4-d]pyrimidin-6-yl}amino)pyrrolidin-2-one] | 51.2 |
| CN1CC[C@@H](Nc2nc(N3CCC(C(C)(C)O)CC3)c3cnn(-c4cccc(C(F)(F)F)c4)c3n2)C1 [Example I-13-2, 2-[1-(6-{[(3R)-1-methylpyrrolidin-3-yl]amino}-1-[3-(trifluoromethyl)phenyl]-1H-pyrazolo[3,4-d]pyrimidin-4-yl)piperidin-4-yl]propan-2-ol] | 32.7 |
| CC(C)(O)C1CCN(c2nc(N[C@@H]3CCNC3=O)nc3c2cnn3-c2cccc(C(F)(F)F)c2)CC1 [Example I-15, (3R)-3-({4-[4-(2-hydroxypropan-2-yl)piperidin-1-yl]-1-[3-(trifluoromethyl)phenyl]-1H-pyrazolo[3,4-d]pyrimidin-6-yl}amino)pyrrolidin-2-one] | 62 |
| CC(C)(O)C1CCN(c2nc(N[C@H]3CCOC3)nc3c2cnn3-c2cccc(C(F)(F)F)c2)CC1 [Example I-16-1, 2-(1-{6-[(3S)-tetrahydrofuran-3-ylamino]-1-[3-(trifluoromethyl)phenyl]-1H-pyrazolo[3,4-d]pyrimidin-4-yl}piperidin-4-yl)propan-2-ol] | 19.4 |
| CC(C)(O)C1CCN(c2nc(N[C@@H]3CNC(=O)C3(C)C)nc3c2cnn3-c2cccc(C(F)(F)F)c2)CC1 [Example I-17, (4S)-4-({4-[4-(2-hydroxypropan-2-yl)piperidin-1-yl]-1-[3-(trifluoromethyl)phenyl]-1H-pyrazolo[3,4-d]pyrimidin-6-yl}amino)-3,3-dimethylpyrrolidin-2-one] | 442 |
| CCC1(O)CN(c2nc(N[C@H]3CCN(C)C3)nc3c2cnn3-c2cccc(C(F)(F)F)c2)C1 [Example I-18, 3-ethyl-1-(6-{[(3S)-1-methylpyrrolidin-3-yl]amino}-1-[3-(trifluoromethyl)phenyl]-1H-pyrazolo[3,4-d]pyrimidin-4-yl)azetidin-3-ol] | 18.4 |
| CCC1(O)CN(c2nc(NC3CCS(=O)(=O)CC3)nc3c2cnn3-c2cccc(C(F)(F)F)c2)C1 [Example I-19, 1-{6-[(1,1-dioxidotetrahydro-2H-thiopyran-4-yl)amino]-1-[3-(trifluoromethyl)phenyl]-1H-pyrazolo[3,4-d]pyrimidin-4-yl}-3-ethlazetidin-3-ol] | 27 |
| O=C1C[C@@H](Nc2nc(N3C[C@H](O)[C@@H](O)C3)c3cnn(-c4cccc(C(F)(F)F)c4)c3n2)CN1 [Example I-20-1, (4R)-4-({4-[(3S,4S)-3,4-dihydroxypyrrolidin-1-yl]-1-[3-(trifluoromethyl)phenyl]-1H-pyrazolo[3,4-d]pyrimidin-6-yl}amino)pyrrolidin-2-one] | 278 |
